# US12421254B2, “KRAS modulators and uses thereof” (Quanta Therapeutics, Inc., priority 2023, dated 2025)
# Assays:
# KRAS G12D/RAF1 = target: T1, KRAS G12D/RAF1 (Homo sapiens, UniProt P01116, G12D); test: Protein-protein interaction (PPI) HTRF assay KRAS G12D/RAF1; format: binding; conditions: Table 2
# T1 construct: KRAS (1-169) proteins were expressed in BL21 (DE3)-CodonPlus E. coli; His6-MBP (N, cleaved yes)
# NRAS/RAF1 = target: T2, NRAS/RAF1 (Homo sapiens, UniProt P01111); test: Protein-protein interaction (PPI) HTRF assay w.t. NRAS/RAF1; format: binding; conditions: Table 3; wt NRAS/RAF1
# T2 construct: (1-169); His6-SUMO (N, cleaved yes)
# Description: When RAS proteins are in the active GTP-bound conformation, they bind the effector protein RAF1 at the N-terminus Ras-binding domain (RBD, residues 52-131) (Tran, et al., 2021). Homogenous time resolved fluorescence (HTRF) was used to monitor the interaction between wt or mutant KRAS and RAF1 or wt NRAS and RAF1. Compounds were assayed in the presence of KRAS G12D/V and RAF1 versus wt KRAS to assess activity against mutant and w.t. KRAS. Similarly, compounds were then assayed in the presence of w.t. NRAS and RAF1 to assess RAS isoform selectivity. In all assay formats, His-tagged RAF1 protein was incubated with the HTRF donor, anti-6His Tb Cryptate gold (Cisbio 61DB10RDF), and biotinylated RAS proteins were incubated with the HTRF acceptor, streptavidin-d2 (CisBio 610SADLA). The intensity of the fluorescence signal emitted is proportional to binding between the two proteins. The donor solution was prepared by mixing 16 nM His-tagged RAF1 in protein dilution buffer with 1:100 anti-6His Tb cryptate in PPI-Terbium detection buffer. 16 nM biotinylated RAS protein was diluted into protein dilution buffer (50 mM Tris-HCl pH 7.5, 150 mM NaCl, 0.1 mM MgCl2, 1 mM TCEP, 0.005% Tween20) and mixed with 1:2000 Streptavidin-d2 diluted in PPI-Terbium detection buffer (CisBio 61DB10RDF). 50× compound in DMSO was mixed with 16 nM KRAS-acceptor solution and incubated for 30 minutes at room temperature. After compound pre-incubation with KRAS, the RAF1 donor solution was added to the KRAS-acceptor solution and incubated for 1 hour at room temperature. The fluorescence signal emitted was monitored at 665 nm and 615 nm using an Envision multimode plate reader. The HTRF ratio (665/615) was calculated and normalized to 0% inhibition in the absence of compound and 100% inhibition in the presence of untagged RAF1 protein. PPI KRAS G12D/RAF1, KRAS G12V/RAF1, w.t. KRAS/RAF1 and NRAS/RAF1 IC50 (uM) values of selected compounds are depicted in Table 3 and Table 4 with compounds having a value <0.1 uM as ++++; ≥0.1 uM to 1 uM as +++; ≥1 uM to 10 uM as ++; ≥10 uM to 100 uM as +; and ≥100 uM as NA.
# phospho-ERK in AGS cells = test: pERK In Cell Western (ICW) assay (Method B), AGS; format: cell-based; conditions: Homo sapiens, Table 2, 3 hours
# Summary of the method: (§1)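 In-cell western read-out: phospho-ERK (800 nm) normalized to DRAQ5 (700 nm) per well, expressed as percent of blank control, IC50 from 4-parameter variable-slope fit. Compounds were applied as ½-log 9-point series for 3 h at 37 °C to cells plated the previous day.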
# [1] = system: phospho-ERK in SW620 (KRAS-G12V) cells; test: pERK In Cell Western (ICW) assay (Method B), SW620; format: cell-based; conditions: Homo sapiens, SW-620, 3 h, Table 4
# Summary of the method: as §1
# T1 sequence (P01116 with tags, fused parts or gaps isoform P01116-2 G12D): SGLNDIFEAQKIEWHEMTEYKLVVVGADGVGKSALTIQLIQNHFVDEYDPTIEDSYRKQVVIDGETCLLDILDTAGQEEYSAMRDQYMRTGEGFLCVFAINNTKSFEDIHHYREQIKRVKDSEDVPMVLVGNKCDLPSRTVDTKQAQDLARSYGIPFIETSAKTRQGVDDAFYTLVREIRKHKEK
# T2 sequence (P01111 with tags, fused parts or gaps): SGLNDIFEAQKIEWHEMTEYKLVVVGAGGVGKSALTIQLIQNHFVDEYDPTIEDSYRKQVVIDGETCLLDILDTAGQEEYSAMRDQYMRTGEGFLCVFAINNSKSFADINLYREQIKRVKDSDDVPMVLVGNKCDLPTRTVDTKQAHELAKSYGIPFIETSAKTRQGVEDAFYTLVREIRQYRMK
smiles,measurement,setting,value
"N#Cc1c(N)sc2c1C1(CC2)CN(c2nc(OCC34CCCN3CC(F)C4)nc(N3CC4CCC(C3)N4)n2)C1 [Compound 1, 2-amino-1′-[4-(3,8-diazabicyclo[3.2.1]octan-3-yl)-6-[[(2R,8S)-2-fluoro-1,2,3,5,6,7-hexahydropyrrolizin-8-yl]methoxy]-1,3,5-triazin-2-yl]spiro[5,6-dihydrocyclopenta[b]thiophene-4,3′-azetidine]-3-carbonitrile]",IC50,KRAS G12D/RAF1,0.1 to 1 µM
same,IC50,NRAS/RAF1,> 100 µM
same,IC50,phospho-ERK in AGS cells,0.1 to 1 µM
"N#Cc1c(N)sc2c1C1(CC2)CN(c2nc(OCC3(CN4CCOCC4)CC3)nc(N3C[C@H]4CC[C@@H](C3)N4)n2)C1 [Compound 2, 2-amino-1′-[4-[[1-(morpholinomethyl)cyclopropyl]methoxy]-6-[(1R,5S)-3,8-diazabicyclo[3.2.1]octan-3-yl]-1,3,5-triazin-2-yl]spiro[5,6-dihydrocyclopenta[b]thiophene-4,3′-azetidine]-3-carbonitrile]",IC50,KRAS G12D/RAF1,1 to 10 µM
same,IC50,NRAS/RAF1,> 100 µM
same,IC50,phospho-ERK in AGS cells,0.1 to 1 µM
"N#Cc1c(N)sc2c1C1(CCC2)CN(c2nc(OCC3(CN4CCOCC4)CC3)nc(N3C[C@H]4CC[C@@H](C3)N4)n2)C1 [Compound 3, 2-amino-1′-[4-[(1R,5S)-3,8-diazabicyclo[3.2.1]octan-3-yl]-6-[[1-(morpholinomethyl)cyclopropyl]methoxy]-1,3,5-triazin-2-yl]spiro[6,7-dihydro-5H-benzothiophene-4,3′-azetidine]-3-carbonitrile]",IC50,KRAS G12D/RAF1,1 to 10 µM
same,IC50,NRAS/RAF1,> 100 µM
same,IC50,phospho-ERK in AGS cells,0.1 to 1 µM
"N#Cc1c(N)sc2c1C1(CC2)CN(c2nc(OCC3(CN4CCOCC4)CC3)nc(N3CCCC4(C3)NC(=O)NC4=O)n2)C1 (stereo not shown) [Compound 7, 2-amino-1′-[4-(2,4-dioxo-1,3,9-triazaspiro[4.5]decan-9-yl)-6-[[1-(morpholinomethyl)cyclopropyl]methoxy]-1,3,5-triazin-2-yl]spiro[5,6-dihydrocyclopenta[b]thiophene-4,3′-azetidine]-3-carbonitrile]",IC50,KRAS G12D/RAF1,0.1 to 1 µM
same,IC50,NRAS/RAF1,> 100 µM
same,IC50,[1],1 to 20 µM
"C[C@@]1(O)CCCN(c2nc(OC[C@@]34CCCN3C[C@H](F)C4)nc(N3CC4(CCc5sc(N)c(C#N)c54)C3)n2)C1 [Compound 10, 2-amino-1′-[4-[[(2R,8S)-2-fluoro-1,2,3,5,6,7-hexahydropyrrolizin-8-yl]methoxy]-6-[(3R)-3-hydroxy-3-methyl-1-piperidyl]-1,3,5-triazin-2-yl]spiro[5,6-dihydrocyclopenta[b]thiophene-4,3′-azetidine]-3-carbonitrile]",IC50,KRAS G12D/RAF1,1 to 10 µM
same,IC50,NRAS/RAF1,> 100 µM
same,IC50,phospho-ERK in AGS cells,0.1 to 1 µM
same,IC50,[1],0.1 to 1 µM
"N#Cc1c(N)sc2c1C1(CC2)CN(c2nc(OC[C@@]34CCCN3C[C@H](F)C4)nc(N3CCCC(C#N)C3)n2)C1 (stereo partly drawn) [Compound 13, 2-amino-1′-[4-(3-cyano-1-piperidyl)-6-[[(2R,8S)-2-fluoro-1,2,3,5,6,7-hexahydropyrrolizin-8-yl]methoxy]-1,3,5-triazin-2-yl]spiro[5,6-dihydrocyclopenta[b]thiophene-4,3′-azetidine]-3-carbonitrile]",IC50,KRAS G12D/RAF1,1 to 10 µM
same,IC50,phospho-ERK in AGS cells,1 to 10 µM
same,IC50,[1],0.1 to 1 µM
